Measured values taken from US10947252B2, “Inhibitors of KEAP1-Nrf2 protein-protein interaction” (Janssen Pharmaceutica NV, priority 2018, dated 2021).

Experiments:
[1] = biological target: Kelch domain of human KEAP1 (321-624 aa) (Homo sapiens (Human), UniProt Q14145); experiment: KEAP1 KELCH ThermoFluor binding assay; details: KEAP Kelch […], 1,8-ANS, pH 7.0, average of results obtained, read-out: Tf Kd;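 note: Ligand-induced melting temperature shift of E. coli-expressed KEAP1 Kelch protein, Kd estimated from concentration-response curves of ΔTm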
Kelch domain of human KEAP1 (321-624 aa), sequence (Q14145 321-624): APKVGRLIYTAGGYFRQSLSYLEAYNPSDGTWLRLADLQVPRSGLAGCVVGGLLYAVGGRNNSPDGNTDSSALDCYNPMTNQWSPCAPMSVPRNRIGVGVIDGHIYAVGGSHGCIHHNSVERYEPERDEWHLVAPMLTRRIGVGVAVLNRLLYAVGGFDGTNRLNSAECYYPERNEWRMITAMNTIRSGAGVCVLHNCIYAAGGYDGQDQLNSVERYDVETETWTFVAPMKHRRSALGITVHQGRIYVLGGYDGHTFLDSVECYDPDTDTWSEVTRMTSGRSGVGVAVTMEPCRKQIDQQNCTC

[2] = system: Glo-Response ARE-luc2P HEK293 cell line; experiment: ARE luciferase reporter cell-based assay; details: average of results obtained;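 note: luciferase signal tracks Nrf2 activation of the ARE once compounds disrupt KEAP1-Nrf2 binding, read with One-Glo reagent, DMSO serving as low control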

Kd [1] | SMILES | EC50 ([2]; Homo sapiens, HEK293, 24 h) | EC50 ([2]; 24 hours)
< 1 nM | Cc1cnc2c(c1)S(=O)(=O)N(Cc1cc([C@H](c3cc4cc(C)nnc4n3C)C(C)(C)C(=O)O)ccc1C)CC1(CC1)O2 (single isomer, unassigned) [Example 331, (*R)-3-(3,7-Dimethyl-7H-pyrrolo[2,3-c]pyridazin-6-yl)-2,2-dimethyl-3-(4-methyl-3-((8′-methyl-1′,1′-dioxidospiro[cyclopropane-1,4′-pyrido[2,3-b][1,4,5]oxathiazepin]-2′(3′H)-yl)methyl)phenyl)propanoic Acid] | 17.1 nM | –
1.9 nM | Cc1ccc([C@@H](CC(=O)O)c2ccc3c(nnn3CC3CC3)c2C)cc1CN1CC2(COC2)Oc2ncccc2S1(=O)=O (single isomer, unassigned) [Example 70, (*R)-3-(1-(Cyclopropylmethyl)-4-methyl-1H-benzo[d][1,2,3]triazol-5-yl)-3-(3-((1′,1′-dioxidospiro[oxetane-3,4′-pyrido[2,3-b][1,4,5]oxathiazepin-2′(3′H)-yl)methyl)-4-methylphenyl)propanoic Acid] | 180 nM | –
< 1 nM | Cc1ccc(C(CC(=O)O)c2ccn3c(C(F)F)nnc3c2C)cc1CN1CC2(CC2)Oc2ncc(F)cc2S1(=O)=O (stereo not drawn) [Example 526, 3-(3-(Difluoromethyl)-8-methyl-[1,2,4]triazolo[4,3-a]pyridin-7-yl)-3-(3-((8′-fluoro-1′,1′-dioxidospiro[cyclopropane-1,4′-pyrido[2,3-b][1,4,5]oxathiazepin]-2′(3′H)-yl)methyl)-4-methylphenyl)propanoic Acid] | 60.1 nM | –
< 1 nM | Cc1ccc([C@@H](CC(=O)O)c2ccn3c(C(F)(F)F)nnc3c2C)nc1CN1CC2(CC2)Oc2ncccc2S1(=O)=O (single isomer, unassigned) [Example 482, (*S)-3-(6-((1′,1′-Dioxidospiro[cyclopropane-1,4′-pyrido[2,3-b][1,4,5]oxathiazepin]-2′(3′H)-yl)methyl)-5-methylpyridin-2-yl)-3-(8-methyl-3-(trifluoromethyl)-[1,2,4]triazolo[4,3-a]pyridin-7-yl)propanoic Acid] | 701 nM | –
0.273 nM | CCn1nnc2c(C)c([C@@H](CC(=O)O)c3ccc(C)c(CN4C[C@H]5CCCN5c5ncccc5S4(=O)=O)c3)ccc21 (single isomer, unassigned) [Example 21, (*S)-3-(3-(((R)-5,5-Dioxido-7a,8,9,10-tetrahydropyrido[2,3-f]pyrrolo[2,1-d][1,2,5]thiadiazepin-6(7H)-yl)methyl)-4-methylphenyl)-3-(1-ethyl-4-methyl-1H-benzo[d][1,2,3]triazol-5-yl)propanoic Acid] | 28 nM | –
< 1 nM | CCn1nnc2c(C)c(C(CC(=O)O)c3ccc(C)c(CN4C[C@H]5CCCCN5c5ncccc5S4(=O)=O)n3)ccc21 (stereo in doubt) [Example 304, 3-(6-(((*R)-5,5-Dioxido-7,7a,8,9,10,11-hexahydro-6H-dipyrido[2,1-d:2′,3′-][1,2,5]thiadiazepin-6-yl)methyl)-5-methylpyridin-2-yl)-3-(1-ethyl-4-methyl-1H-benzo[d][1,2,3]triazol-5-yl)propanoic Acid] | 2.9 nM | –
769 nM | Cc1ccc([C@@H](CC(=O)O)c2ccn3c(C(F)F)nnc3c2C)cc1CN1CC2(CC2)Oc2ncc(C(N)=O)cc2S1(=O)=O (single isomer, unassigned) [Example 553, (*R)-3-(3-((8′-Carbamoyl-1′,1′-dioxidospiro[cyclopropane-1,4′-pyrido[2,3-b][1,4,5]oxathiazepin]-2′(3′H)-yl)methyl)-4-methylphenyl)-3-(3-(difluoromethyl)-8-methyl-[1,2,4]triazolo[4,3-a]pyridin-7-yl)propanoic Acid] | > 20000 nM | –
6380 nM | Cc1cnc2c(c1)S(=O)(=O)N(Cc1cc([C@@H](c3ccn4c(C(F)(F)F)nnc4c3C)C(C)(C)C(=O)O)cnc1C)CC1(CCOCC1)O2 (single isomer, unassigned) [Example 586, (*R)-2,2-Dimethyl-3-(8-methyl-3-(trifluoromethyl)-[1,2,4]triazolo[4,3-a]pyridin-7-yl)-3-(6-methyl-5-((8′-methyl-1′,1′-dioxido-2,3,5,6-tetrahydrospiro[pyran-4,4′-pyrido[2,3-b][1,4,5]oxathiazepin]-2′(3′H)-yl)methyl)pyridin-3-yl)propanoic Acid] | > 20000 nM | –
< 1 nM | CCn1nnc2c(C)c([C@H](c3cc(CN4CC5(CC5)Oc5ncc(C)cc5S4(=O)=O)c(C)cn3)C(C)(C)C(=O)O)ccc21 (single isomer, unassigned) [Example 594, (*S)-3-(1-Ethyl-4-methyl-1H-benzo[d][1,2,3]triazol-5-yl)-2,2-dimethyl-3-(5-methyl-4-((8′-methyl-1′,1′-dioxidospiro[cyclopropane-1,4′-pyrido[2,3-b][1,4,5]oxathiazepin]-2′(3′H)-yl)methyl)pyridin-2-yl)propanoic Acid] | 3.3 nM | –
2.55 nM | Cc1ccc([C@@H](CC(=O)O)c2ccn3c(C(F)(F)F)nnc3c2C)cc1CN1C[C@@H]2CCN2c2ncccc2S1(=O)=O (single isomer, unassigned) [Example 293, (*R)-3-(3-(((*S)-5,5-Dioxido-7,7a, 8,9-tetrahydro-6H-azeto[2,1-d]pyrido[2,3-f][1,2,5]thiadiazepin-6-yl)methyl)-4-methylphenyl)-3-(8-methyl-3-(trifluoromethyl)-[1,2,4]triazolo[4,3-a]pyridin-7-yl)propanoic Acid] | 899 nM | –
< 1 nM | Cc1ccc([C@H](c2ccn3c(C(F)(F)F)nnc3c2C)C(C)(C)C(=O)O)cc1CN1CC2(CCOCC2)Oc2nc(OCCC3CCNCC3)c(C)cc2S1(=O)=O (single isomer, unassigned) [Example 369, (*R)-2,2-Dimethyl-3-(4-methyl-3-(8′-methyl-1′,1′-dioxido-7′-(2-(piperidin-4-yl)ethoxy)-2,3,5,6-tetrahydrospiro[pyran-4,4′-pyrido[2,3-b][1,4,5]oxathiazepin]-2′(3′H)-yl)methyl)-4-methylphenyl)-2,2-dimethyl-3-(8-methyl-3-(trifluoromethyl)-[1,2,4]triazolo[4,3-a][pyridine-7-yl)propanoic Acid] | 176 nM | –
< 1 nM | Cc1cnc2c(c1)S(=O)(=O)N(Cc1cc([C@@H](c3ccn4c(C(F)(F)F)nnc4c3C)C(C)(C)C(=O)O)ncc1C)CC1(CCOCC1)O2 (single isomer, unassigned) [Example 591, (*S)-2,2-Dimethyl-3-(8-methyl-3-(trifluoromethyl)-[1,2,4]triazolo[4,3-a]pyridin-7-yl)-3-(5-methyl-4-((8′-methyl-1′,1′-dioxido-2,3,5,6-tetrahydrospiro[pyran-4,4′-pyrido[2,3-b][1,4,5]oxathiazepin]-2′(3′H)-yl)methyl)pyridin-2-yl)propanoic Acid] | 26.1 nM | –
< 1 nM | CCn1nnc2c(C)c([C@H](CC(=O)O)c3ccc(C)c(CN4CC5(COC5)Oc5ccccc5S4(=O)=O)n3)ccc21 (single isomer, unassigned) [Example 238, (*S)-3-(6-((1,1-Dioxidospiro[benzo[b][1,4,5]oxathiazepine-4,3′-oxetan]-2(3H)-yl)methyl)-5-methylpyridin-2-yl)-3-(1-ethyl-4-methyl-1H-benzo[d][1,2,3]triazol-5-yl)propanoic Acid] | 9.7 nM | –
< 1 nM | Cc1ccc(C(CC(=O)O)c2ccn3c(C(F)(F)F)nnc3c2C)cc1CN1CC2(COC2)Oc2ccccc2S1(=O)=O (stereo not drawn) [Example 287, 3-(3-((1,1-Dioxidospiro[benzo[b][1,4,5]oxathiazepine-4,3′-oxetan]-2(3H)-yl)methyl)-4-methylphenyl)-3-(8-methyl-3-(trifluoromethyl)-[1,2,4]triazolo[4,3-a]pyridin-7-yl)propanoic Acid] | 28.1 nM | –
84600 nM | Cc1ccc([C@@H](CC(N)=O)c2ccn3c(C(F)(F)F)nnc3c2C)cc1CN1C[C@@H]2CCCCN2c2ncccc2S1(=O)=O (single isomer, unassigned) [Example 549, (*R)-3-(3-(((*S)-5,5-Dioxido-7,7a,8,9,10,11-hexahydro-6H-dipyrido[2,1-d:2′,3′-f][1,2,5]thiadiazepin-6-yl)methyl)-4-methylphenyl)-3-(8-methyl-3-(trifluoromethyl)-[1,2,4]triazolo[4,3-a]pyridin-7-yl)propanamide] | > 20000 nM | –
2530 nM | Cc1cnc2c(c1)S(=O)(=O)N(Cc1cc([C@@H](c3ccn4c(C5CC5)nnc4c3C)C(C)(C)C(=O)O)ccc1C)CC1(COC1)O2 (single isomer, unassigned) [Example 622, (*S)-3-(3-Cyclopropyl-8-methyl-[1,2,4]triazolo[4,3-a]pyridin-7-yl)-2,2-dimethyl-3-(4-methyl-3-((8′-methyl-1′,1′-dioxidospiro[oxetane-3,4′-pyrido[2,3-b][1,4,5]oxathiazepin]-2′(3′H)-yl)methyl)phenyl)propanoic Acid] | 3230 nM | –

SMILES | Kd [1] | EC50 ([2]; Homo sapiens, HEK293, 24 h) | EC50 ([2]; 24 hours)
Cc1ccc([C@H](c2ccc3c(nnn3C3CC3)c2C)C(C)(C)C(=O)O)cc1CN1CC2(CC2)Oc2nc(N[C@@H](C)CN3CCCCC3)c(C)cc2S1(=O)=O (single isomer, unassigned) [Example 660, (*R)-3-(1-Cyclopropyl-4-methyl-1H-benzo[d][1,2,3]triazol-5-yl)-2,2-dimethyl-3-(4-methyl-3-((8′-methyl-1′,1′-dioxido-7′-(((S)-1-(piperidin-1-yl)propan-2-yl)amino)spiro[cyclopropane-1,4′-pyrido[2,3-b][1,4,5]oxathiazepin]-2′(3′H)-yl)methyl)phenyl)propanoic Acid] | 681 nM | 235 nM | –
Cc1ccc([C@H](CC(=O)O)c2cc(OC(F)F)c3c(c2)nnn3C)cc1CN1C[C@H]2CCCN2c2ncccc2S1(=O)=O (relative stereo) [Example 247, (*S)-3-(7-(Difluoromethoxy)-1-methyl-1H-benzo[d][1,2,3]triazol-5-yl)-3-(3-(((R)-5,5-dioxido-7a,8,9,10-tetrahydropyrido[2,3-f]pyrrolo[2,1-d][1,2,5]thiadiazepin-6(7H)-yl)methyl)-4-methylphenyl)propanoic Acid] | < 1 nM | – | 225 nM
